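How tested: cells in 96-well plates exposed to compound for 48 hours at five concentrations. TGI is the concentration that stops growth completely.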
Experiments:
Assay in all cases: growth of human tumour cells (NCI), 48 h
A549 NSCLC = test system: A549 NSCLC
CCRF-CEM leukemia = test system: CCRF-CEM leukemia
COLO 205 colon = test system: COLO 205 colon
HCT-116 colon = test system: HCT-116 colon
HCT-15 colon = test system: HCT-15 colon
HOP-62 NSCLC = test system: HOP-62 NSCLC
MCF7 breast = test system: MCF7 breast
MDA-MB-231 breast = test system: MDA-MB-231 breast
MDA-MB-435 = test system: MDA-MB-435
NCI-H23 lung = test system: NCI-H23 lung
NCI-H460 lung = test system: NCI-H460 lung
NCI-H522 lung = test system: NCI-H522 lung
NCI/ADR-RES ovarian = test system: NCI/ADR-RES ovarian
OVCAR-4 ovarian = test system: OVCAR-4 ovarian
OVCAR-5 ovarian = test system: OVCAR-5 ovarian
SK-MEL-2 melanoma = test system: SK-MEL-2 melanoma
UO-31 renal = test system: UO-31 renal
HS 578T breast = test system: HS 578T breast
MDA-N = test system: MDA-N

Row | SMILES | TGI (A549 NSCLC) [µM] | TGI (CCRF-CEM leukemia) [µM] | TGI (COLO 205 colon) [µM] | TGI (HCT-116 colon) [µM] | TGI (HCT-15 colon) [µM] | TGI (HOP-62 NSCLC) [µM] | TGI (MCF7 breast) [µM] | TGI (MDA-MB-231 breast) [µM] | TGI (MDA-MB-435) [µM] | TGI (NCI-H23 lung) [µM] | TGI (NCI-H460 lung) [µM] | TGI (NCI-H522 lung) [µM] | TGI (NCI/ADR-RES ovarian) [µM] | TGI (OVCAR-4 ovarian) [µM] | TGI (OVCAR-5 ovarian) [µM] | TGI (SK-MEL-2 melanoma) [µM] | TGI (UO-31 renal) [µM] | TGI (HS 578T breast) [µM] | TGI (MDA-N) [µM]
1 | O/C(=C\c1nc2ccccc2nc1/C=C(\O)c1ccc(Cl)cc1)c1ccccc1 | > 100 | > 100 | > 100 | > 100 | > 100 | > 100 | > 100 | > 100 | > 100 | > 100 | > 100 | > 100 | > 100 | > 100 | > 100 | > 100 | > 100 |  | 
2 | Nc1nc(Cl)c2ncn(Cc3ccc(CCl)cc3)c2n1 | 76.2 | > 100 | 13.4 | 14.5 | 19.8 | 27.3 | 16.8 | 34.6 | 42.5 | 30.4 | 20 | 25.9 | 26.7 | 30.1 | 14.9 | 29.1 | 25.4 | > 100 | 
3 | CC(=O)OCC1OC(n2c(-c3ccccc3)c(C(C)=O)c(-c3ccc(Cl)cc3)c(C#N)c2=S)C(OC(C)=O)C(OC(C)=O)C1OC(C)=O (configuration not stated) | > 100 | > 100 | > 100 | > 100 | > 100 | > 100 | > 100 | > 100 | > 100 | > 100 | > 100 | > 100 | > 100 | > 100 | > 100 |  |  |  | > 100
4 | CC(C)(C)c1cc(C(C)(C)C)c(SS(=O)(=O)O)c(O)c1O | > 100 | > 100 | > 100 | > 100 | > 100 | > 100 | > 100 | > 100 | > 100 | > 100 | > 100 |  | > 100 | > 100 | > 100 | 94.5 | > 100 |  | > 100
5 | CNC(=O)c1n[nH]nc1Sc1c([N+](=O)[O-])ncn1C | > 100 | > 100 | > 100 | > 100 | > 100 | > 100 | > 100 | > 100 | > 100 | > 100 | > 100 | > 100 | > 100 | > 100 | > 100 | > 100 | > 100 | > 100 | 
6 | N=C(N)N1CCC(N2CCOCC2)CC1 | > 100 | > 100 | > 100 | > 100 | > 100 | > 100 | > 100 | > 100 | > 100 | > 100 | > 100 |  | > 100 | > 100 | > 100 |  | > 100 | > 100 | 
7 | CC(OC(C)(C)C)[C@H](NC(=O)OC(C)(C)C)C(=O)O (some centres not stated) | > 100 | > 100 | > 100 | > 100 | > 100 | > 100 | > 100 | > 100 | > 100 | > 100 | > 100 | > 100 | > 100 | > 100 | > 100 |  | > 100 | > 100 | 
8 | COC(=O)c1sc2ncc3c(c2c1N)CCCCCC3 | > 100 | > 100 | > 100 | > 100 | > 100 | > 100 | > 100 | > 100 | > 100 | > 100 | > 100 | > 100 | > 100 | > 100 | > 100 | > 100 | > 100 |  | > 100
9 | N#Cc1c(Cl)cccc1Oc1ccc(S(=O)(=O)/N=C(\NN)Nc2ccc(Cl)cc2)cc1 | > 100 |  | 29.6 | 37.8 | > 100 | 59.6 | > 100 | 67.2 |  | 65.6 | 43.7 |  | > 100 | 71 | 94.5 | 46.5 | 91.5 |  | 66.4
10 | COc1cc(C2c3cc(O)c(OC)cc3C3OCC2C3CO)ccc1O (configuration not stated) | > 100 |  | > 100 | > 100 | > 100 | > 100 | > 100 | > 100 | > 100 | > 100 | > 100 | > 100 | > 100 | > 100 | > 100 | > 100 | > 100 |  | 
11 | C=C(C)C1Cc2c(cc(O)c3c(=O)c4c(oc23)C(O)Oc2cc(OC)c(OC)cc2-4)O1 (configuration not stated) | > 10 | > 10 | > 10 | > 10 | > 10 | > 10 | > 10 | > 10 | > 10 | > 10 | > 10 |  | > 10 | > 10 | > 10 |  | > 10 |  | > 10
12 | CCCCCCCCCc1cc(-c2ccc(C=O)s2)sc1-c1ccc(C=O)s1 | > 100 | 8.51 | > 31.6 | 49 | > 72.7 | 74.8 | > 54.3 | > 77.9 | > 100 | 82.5 | > 83.2 | 45.6 | > 78.6 | > 80.4 | > 91.6 | 64.4 | 63.3 | 46.5 | 
13 | O=C(COc1ccc(OCC(=O)N2C(=O)CSC2=Nc2ccccc2)cc1)N1C(=O)CSC1=Nc1ccccc1 | > 100 |  | 96.2 | 27.3 | > 100 |  | > 100 | 90.1 | > 100 | > 100 | > 100 | 42.1 | > 100 | > 100 | 91.9 | > 100 | > 100 |  | 79.7
14 | COc1ccc2nc3ccc(OC)cc3c(SCc3ccc([N+](=O)[O-])cc3)c2c1 | > 100 | > 100 | > 100 | > 100 | > 100 | > 100 |  | > 100 | > 100 | > 100 | > 100 | > 100 | > 100 | 69.6 | > 100 | > 100 | > 100 |  | > 100
15 | O=C1SS(=O)c2ccccc21 (configuration not stated) | > 100 | > 100 | > 100 | > 100 | > 100 | > 100 | > 100 | > 100 | > 100 | > 100 | > 100 | > 100 | > 100 | > 100 | > 100 | > 100 | > 100 |  | > 100
16 | CC(=O)O[C@H]1C(=O)[C@@]2(C)[C@H]([C@H](OC(=O)c3cccc(C(F)(F)F)c3)[C@]3(O)C[C@H](OC(=O)[C@H](O)[C@@H](NC(=O)c4ccccc4)c4ccccc4)C(C)=C1C3(C)C)[C@]1(OC(C)=O)CO[C@@H]1C[C@@H]2O | > 25 | 0.368 | 3.27 | 3.21 | > 25 | > 14.2 |  | > 13.1 | < 0.0025 | > 25 | > 10.6 | 0.0175 | > 7.02 | > 18.4 | > 10.7 |  | > 15.9 | 0.0653 | < 0.0025
17 | Nc1nc(N)c(C2=CCNCC2)c(=O)[nH]1 | > 100 | > 100 | > 100 | > 100 | > 100 | > 100 | > 100 | > 100 | > 100 | > 100 | > 100 | > 100 | > 100 | > 100 | > 100 | > 100 | > 100 | > 100 | 
18 | CC(C)(C)c1cc(-c2cc(C(C)(C)C)n(-c3ccccc3)n2)nn1-c1ccccc1 | > 100 | > 100 | > 100 | > 100 | > 100 | > 100 | > 100 | > 100 | > 100 | > 100 | > 100 | > 100 | > 100 | > 100 | > 100 | > 100 | > 100 |  | 
19 | CS/C1=C(\c2ccc(C)cc2)N(c2ccccc2)C(=O)C(=O)N(c2ccccc2)/C(c2ccc(C)cc2)=C(/SC)SS1 |  | > 100 | > 100 | > 100 | > 100 | > 100 | > 100 | > 100 | > 100 | > 100 | > 100 | > 100 | > 100 | > 100 | > 100 | > 100 | > 100 |  | > 100
20 | NC(=S)N/N=C(\Cc1nc2ccc(Cl)cc2[nH]c1=O)C(=O)Nc1ccc(Cl)cc1 | > 100 | > 100 | > 100 | > 100 | > 100 | > 100 | > 100 | > 100 | > 100 | > 100 | > 100 | > 100 | > 100 | > 100 | > 100 | > 100 | > 100 | > 100 | 
21 | O=S1CCS(=O)CCS(=O)CC1 (configuration not stated) | > 100 | > 100 | > 100 | > 100 | > 100 | > 100 | > 100 | > 100 | > 100 | > 100 | > 100 | > 100 | > 100 | > 100 | > 100 |  | > 100 |  | > 100

From PubChem BioAssay (NCI)
